For one data set, the system named is Vero. In words: Cytotoxicity against african green monkey Vero cells up to 25 ug/ml after 48 hrs by neutral red assay. In kind it is cell-based. As to conditions: chlorocebus sabaeus.
Another data set has as its system SK-OV-3. In words: Cytotoxicity against human SKOV3 cells up to 25 ug/ml after 48 hrs by neutral red assay. The format is cell-based. As to conditions: sk-ov-3, 48 h.
Data set [1] deals with Nakaseomyces glabratus. In words: Antifungal activity against Candida glabrata clinical isolate 2 after 24 hrs by broth microdilution assay. In kind it is functional. A general note: Dilution methods test growth across graded concentrations, often in twofold steps.
Another data set concerns Candida tropicalis. The data set can be described thus: Antifungal activity against Candida tropicalis NRRL Y-12968 after 24 hrs by broth microdilution assay. In kind it is functional. As to conditions: NRRL Y-12968, 24 h.
Data set [2] has as its system Candida albicans. The data set can be described thus: Antifungal activity against Candida albicans clinical isolate after 24 hrs by broth microdilution assay. In kind it is functional.
Data set [3] has as its system Nakaseomyces glabratus. In words: Antifungal activity against Candida glabrata clinical isolate 1 after 24 hrs by broth microdilution assay. The format is functional. As to conditions: isolate 1, 24 h.
A short description of data set [4]: Cytotoxicity against african pig LLC-PK11 up to 25 ug/ml after 48 hrs by neutral red assay. More on the design: species or system Sus scrofa.
The next data set concerns SK-MEL. The data set can be described thus: Cytotoxicity against human SK-MEL cells up to 25 ug/ml after 48 hrs by neutral red assay. The format is cell-based.
In the next data set the test system is Candida parapsilosis. The data set can be described thus: Antifungal activity against Candida parapsilosis NRRL Y-12696 after 24 hrs by broth microdilution assay. As to conditions: Lodderomyces parapsilosis, NRRL Y-12696, 24 h. In kind it is functional.
Data set [5] relates to Candida albicans. In words: Antifungal activity against Candida albicans NRRL Y-12983 after 24 hrs by broth microdilution assay. The format is functional. As to conditions: NRRL Y-12983, 24 h.
For a further data set, the system named is Pichia kudriavzevii. The data set can be described thus: Antifungal activity against Candida krusei NRRL Y-7179 after 24 hrs by broth microdilution assay. As to conditions: NRRL Y-7179, 24 h. The format is functional.
Data set [6] concerns Candida albicans. In words: Antifungal activity against Candida albicans ATCC 90028 after 24 hrs by broth microdilution assay. As to conditions: ATCC 90028, 24 h. The format is functional.
The next data set relates to [Candida] zeylanoides. In words: Antifungal activity against Candida zeylanoides NRRL Y-1774 after 24 hrs by broth microdilution assay. In kind it is functional. As to conditions: Dujonia zeylanoides, NRRL Y-1774, 24 h.
Another data set relates to BT-549. The data set can be described thus: Cytotoxicity against human BT549 cells up to 25 ug/ml after 48 hrs by neutral red assay. In kind it is cell-based. As to conditions: bt-549, 48 h.
A further data set relates to Cyberlindnera jadinii. The data set can be described thus: Antifungal activity against Candida utilis NRRL Y-900 after 24 hrs by broth microdilution assay. As to conditions: Williopsis jadinii, NRRL Y-900, 24 h. The format is functional.

Data on eleven molecules can be found in ChEMBL document CHEMBL1157840, “Synthesis and the selective antifungal activity of 5,6,7,8-tetrahydroimidazo[1,2-a]pyridine derivatives” (Eur J Med Chem, 2010).

As a reminder, the MIC is the lowest concentration that inhibits growth of the organism.

Converted amounts (≈) assume the structure as drawn. Some results are limits rather than exact numbers.

For `Cc1ccc(/C=N/NC(=O)c2cn3c(n2)CCCC3)cc1`, the Activity result (with Vero; in the data set on SK-OV-3; in data set [4]; with SK-MEL; in the data set on BT-549) was “Non-toxic” in each case. Moreover, the MIC in the data set with Nakaseomyces glabratus [1] is over 0.25 µg/mL; in the data set on Candida tropicalis, 0.125 µg/mL (≈ 0.443 µM); in the data set with Candida albicans [2] it was 0.032 µg/mL (≈ 0.113 µM); in the data set on Nakaseomyces glabratus [3], over 0.25 µg/mL; against Candida parapsilosis, 0.5 µg/mL (≈ 1.77 µM); against Candida albicans [5], over 0.25 µg/mL. Moreover, the MIC (in the data set with Pichia kudriavzevii; in the data set on Candida albicans [6]; in data set [Candida] zeylanoides; with Cyberlindnera jadinii) was over 0.25 µg/mL throughout.

Turning to `CC(C)c1ccc(/C=N/NC(=O)c2cn3c(n2)CCCC3)cc1`, the Activity entry (in the data set with Vero; in the data set with SK-OV-3; in data set [4]; in the data set on SK-MEL; in the data set on BT-549) was “Non-toxic” in each case. In addition, the MIC with Nakaseomyces glabratus [1] was 0.5 µg/mL (≈ 1.61 µM); in the data set with Candida tropicalis, 0.125 µg/mL (≈ 0.403 µM); in the data set with Candida albicans [2] it was 0.125 µg/mL (≈ 0.403 µM); against Nakaseomyces glabratus [3] it was over 0.25 µg/mL; against Candida parapsilosis it was over 0.25 µg/mL; with Candida albicans [5], over 0.25 µg/mL. Moreover, the MIC (against Pichia kudriavzevii; with Candida albicans [6]; in [Candida] zeylanoides; against Cyberlindnera jadinii) was over 0.25 µg/mL throughout.

As for `O=C(N/N=C/c1ccc([N+](=O)[O-])cc1)c1cn2c(n1)CCCC2`, the Activity entry (in the data set on Vero; in the data set with SK-OV-3; in data set [4]; in the data set on SK-MEL; with BT-549) was “Non-toxic” throughout. The MIC amounted to 0.25 µg/mL (≈ 0.798 µM) against Nakaseomyces glabratus [1]; 0.25 µg/mL (≈ 0.798 µM) in the data set with Candida tropicalis; 0.125 µg/mL (≈ 0.399 µM) in the data set with Candida albicans [2]; 0.5 µg/mL (≈ 1.6 µM) with Nakaseomyces glabratus [3]; 0.25 µg/mL (≈ 0.798 µM) in the data set with Candida parapsilosis; 0.25 µg/mL (≈ 0.798 µM) in the data set on Candida albicans [5]. For the same molecule, the MIC in the data set on Pichia kudriavzevii amounted to 0.5 µg/mL (≈ 1.6 µM); in the data set on Candida albicans [6], 0.5 µg/mL (≈ 1.6 µM); in [Candida] zeylanoides, 0.25 µg/mL (≈ 0.798 µM); against Cyberlindnera jadinii it was 0.5 µg/mL (≈ 1.6 µM).

Turning to `CN(C)c1ccc(/C=N/NC(=O)c2cn3c(n2)CCCC3)cc1`, the Activity result (in the data set on Vero; with SK-OV-3; in [4]; in the data set on SK-MEL; in the data set on BT-549) was “Non-toxic” each time. In addition, the MIC was over 0.25 µg/mL against Nakaseomyces glabratus [1]; 0.125 µg/mL (≈ 0.401 µM) in the data set on Candida tropicalis; 0.125 µg/mL (≈ 0.401 µM) in the data set on Candida albicans [2]; over 0.25 µg/mL against Nakaseomyces glabratus [3]; over 0.25 µg/mL with Candida parapsilosis; over 0.25 µg/mL in the data set with Candida albicans [5]. Moreover, the MIC (with Pichia kudriavzevii; in the data set with Candida albicans [6]; in data set [Candida] zeylanoides; against Cyberlindnera jadinii) was over 0.25 µg/mL in each case.

As for `O=C(N/N=C/c1ccc(Br)cc1)c1cn2c(n1)CCCC2`, the Activity entry (with Vero; in the data set on SK-OV-3; in data set [4]; in the data set on SK-MEL; with BT-549) was “Non-toxic” throughout. Also, the minimal inhibitory concentration (MIC) in the data set with Nakaseomyces glabratus [1] stood at 0.25 µg/mL (≈ 0.72 µM); in the data set on Candida tropicalis, 0.5 µg/mL (≈ 1.44 µM); in the data set on Candida albicans [2], 1 µg/mL (≈ 2.88 µM); in the data set with Nakaseomyces glabratus [3], 0.5 µg/mL (≈ 1.44 µM); against Candida parapsilosis it was 1 µg/mL (≈ 2.88 µM); in the data set with Candida albicans [5], 0.125 µg/mL (≈ 0.36 µM). In addition, the MIC was determined as 0.25 µg/mL (≈ 0.72 µM) in the data set on Pichia kudriavzevii, 0.5 µg/mL (≈ 1.44 µM) in the data set on Candida albicans [6], 1 µg/mL (≈ 2.88 µM) in data set [Candida] zeylanoides and 1 µg/mL (≈ 2.88 µM) against Cyberlindnera jadinii.

Regarding `O=C(N/N=C/c1ccc(Cl)cc1)c1cn2c(n1)CCCC2`, the Activity entry (in the data set on Vero; in the data set with SK-OV-3; in data set [4]; in the data set on SK-MEL; with BT-549) was “Non-toxic” each time. Besides, the MIC against Nakaseomyces glabratus [1] is 0.125 µg/mL (≈ 0.413 µM); in the data set with Candida tropicalis it was over 0.25 µg/mL; in the data set with Candida albicans [2] it was 0.125 µg/mL (≈ 0.413 µM); in the data set with Nakaseomyces glabratus [3] it was over 0.25 µg/mL; in the data set on Candida parapsilosis, 0.5 µg/mL (≈ 1.65 µM); with Candida albicans [5], 0.5 µg/mL (≈ 1.65 µM). For the same molecule, the MIC in the data set on Pichia kudriavzevii was over 0.25 µg/mL; against Candida albicans [6], 0.5 µg/mL (≈ 1.65 µM); in data set [Candida] zeylanoides, over 0.25 µg/mL; against Cyberlindnera jadinii, over 0.25 µg/mL.

As for `O=C(N/N=C/c1ccc2c(c1)OCO2)c1cn2c(n1)CCCC2`, the Activity result (with Vero; with SK-OV-3; in [4]; in the data set with SK-MEL; in the data set with BT-549) was “Non-toxic” throughout. The MIC is over 0.25 µg/mL against Nakaseomyces glabratus [1]; 0.125 µg/mL (≈ 0.4 µM) against Candida tropicalis; 0.063 µg/mL (≈ 0.202 µM) with Candida albicans [2]; over 0.25 µg/mL against Nakaseomyces glabratus [3]; over 0.25 µg/mL against Candida parapsilosis; over 0.25 µg/mL in the data set on Candida albicans [5]. Further, the MIC in the data set with Pichia kudriavzevii is over 0.25 µg/mL; against Candida albicans [6], over 0.25 µg/mL; in data set [Candida] zeylanoides, over 0.25 µg/mL; against Cyberlindnera jadinii, 0.125 µg/mL (≈ 0.4 µM).

`N#Cc1ccc(/C=N/NC(=O)c2cn3c(n2)CCCC3)cc1`: the Activity entry (in the data set with Vero; with SK-OV-3; in data set [4]; in the data set on SK-MEL; in the data set with BT-549) was “Non-toxic” throughout. For the same molecule, the MIC is 0.032 µg/mL (≈ 0.109 µM) with Nakaseomyces glabratus [1]; under 0.016 µg/mL with Candida tropicalis; 0.032 µg/mL (≈ 0.109 µM) against Candida albicans [2]; 0.032 µg/mL (≈ 0.109 µM) in the data set with Nakaseomyces glabratus [3]; 0.032 µg/mL (≈ 0.109 µM) in the data set with Candida parapsilosis; 0.032 µg/mL (≈ 0.109 µM) against Candida albicans [5]. The MIC in the data set on Pichia kudriavzevii was under 0.016 µg/mL; with Candida albicans [6], 0.063 µg/mL (≈ 0.215 µM); in data set [Candida] zeylanoides it was 0.032 µg/mL (≈ 0.109 µM); in the data set with Cyberlindnera jadinii, 0.032 µg/mL (≈ 0.109 µM).

Consider `Clc1ccccc1C(c1ccccc1)(c1ccccc1)n1ccnc1` [CLOTRIMAZOLE], for which the Activity result (in the data set with Vero; in the data set with SK-OV-3; in data set [4]; with SK-MEL; with BT-549) was “Non-toxic” in each case. Moreover, the MIC in the data set with Nakaseomyces glabratus [1] is under 0.08 µg/mL; in the data set with Candida tropicalis, 0.032 µg/mL (≈ 0.0928 µM); against Candida albicans [2], under 0.08 µg/mL; against Nakaseomyces glabratus [3], under 0.08 µg/mL; with Candida parapsilosis, under 0.08 µg/mL; in the data set on Candida albicans [5] it was under 0.08 µg/mL. Also, the MIC against Pichia kudriavzevii is under 0.08 µg/mL; in the data set on Candida albicans [6], under 0.08 µg/mL; in data set [Candida] zeylanoides it was 0.125 µg/mL (≈ 0.362 µM); against Cyberlindnera jadinii it was under 0.08 µg/mL.

With `COC1=CC(=O)C[C@@H](C)[C@]12Oc1c(Cl)c(OC)cc(OC)c1C2=O` [GRISEOFULVIN], the Activity result (with Vero; with SK-OV-3; in data set [4]; in the data set on SK-MEL; with BT-549) was “Non-toxic” each time. Further, the MIC in the data set with Nakaseomyces glabratus [1] was found to be 0.125 µg/mL (≈ 0.354 µM); against Candida tropicalis, 0.125 µg/mL (≈ 0.354 µM); in the data set with Candida albicans [2], 0.25 µg/mL (≈ 0.709 µM); in the data set on Nakaseomyces glabratus [3], 0.25 µg/mL (≈ 0.709 µM); with Candida parapsilosis it was 0.5 µg/mL (≈ 1.42 µM); in the data set on Pichia kudriavzevii it was 0.25 µg/mL (≈ 0.709 µM). Further, the MIC (in [Candida] zeylanoides; with Cyberlindnera jadinii) was 0.5 µg/mL (≈ 1.42 µM) throughout.

Regarding `CC(=O)N1CCN(c2ccc(OCC3COC(Cn4ccnc4)(c4ccc(Cl)cc4Cl)O3)cc2)CC1` (stereo not drawn) [KETOCONAZOLE], the Activity entry (in the data set with Vero; in the data set with SK-OV-3; in [4]; with SK-MEL; with BT-549) was “Non-toxic” each time. Further, the MIC in the data set with Nakaseomyces glabratus [1] was 0.032 µg/mL (≈ 0.0602 µM); against Candida tropicalis it was 0.125 µg/mL (≈ 0.235 µM); against Candida albicans [2], 0.063 µg/mL (≈ 0.119 µM); in the data set with Nakaseomyces glabratus [3], 0.125 µg/mL (≈ 0.235 µM); in the data set on Candida parapsilosis, 0.032 µg/mL (≈ 0.0602 µM); in the data set on Candida albicans [5], 0.032 µg/mL (≈ 0.0602 µM). The MIC turned out to be 0.125 µg/mL (≈ 0.235 µM) in the data set on Pichia kudriavzevii, 0.063 µg/mL (≈ 0.119 µM) with Candida albicans [6], 0.5 µg/mL (≈ 0.941 µM) in [Candida] zeylanoides and 0.125 µg/mL (≈ 0.235 µM) in the data set with Cyberlindnera jadinii.
